Measured values published in ChEMBL document CHEMBL1142021, “Aglycon specificity profiling of alpha-glucosidases using synthetic probes” (Bioorg Med Chem Lett, 2005).

Columns and labels:
Homo sapiens = species on record: Homo sapiens; experiment: Inhibition of Glucosidase 2 at 12 umol/mL
Alpha-glucosidase = molecular target: T1, Alpha-glucosidase (Apis mellifera, UniProt Q17058); experiment: Inhibition of family 13 alpha-glucosidase isoform I from honey bee at 1 umol/mL
T1 sequence (Q17058 whole entry): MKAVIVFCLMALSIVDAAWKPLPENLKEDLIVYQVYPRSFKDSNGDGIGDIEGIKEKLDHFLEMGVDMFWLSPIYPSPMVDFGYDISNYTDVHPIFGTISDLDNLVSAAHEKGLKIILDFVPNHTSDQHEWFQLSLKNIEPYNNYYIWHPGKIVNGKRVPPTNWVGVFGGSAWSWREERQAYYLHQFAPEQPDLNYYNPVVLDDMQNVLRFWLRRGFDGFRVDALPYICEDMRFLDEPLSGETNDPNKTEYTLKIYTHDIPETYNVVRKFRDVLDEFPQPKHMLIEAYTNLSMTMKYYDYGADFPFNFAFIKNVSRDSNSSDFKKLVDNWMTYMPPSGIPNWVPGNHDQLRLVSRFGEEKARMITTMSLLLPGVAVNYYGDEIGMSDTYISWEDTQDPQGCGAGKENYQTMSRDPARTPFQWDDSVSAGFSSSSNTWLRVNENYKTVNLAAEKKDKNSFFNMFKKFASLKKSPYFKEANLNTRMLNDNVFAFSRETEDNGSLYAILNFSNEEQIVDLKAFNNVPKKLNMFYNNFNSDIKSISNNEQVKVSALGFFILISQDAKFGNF

[1] = molecular target: T2, Alpha-glucosidase (Apis mellifera) (UniProt Q17058); experiment: Inhibition of family 13 alpha-glucosidase isoform II from honey bee; conditions: concentration not given here
T2 sequence (whole entry): T1 sequence (Q17058 whole entry)

[2] = Inhibition of beta-Mannosidase; conditions: Homo sapiens; concentration not given here
[3] = molecular target: T3, Mannosyl-oligosaccharide glucosidase (Homo sapiens) (UniProt Q13724); experiment: Inhibition of Glucosidase 1(of Endoplasmic reticulum processing alpha-glucosidase) at 2 umol/mL
T3 sequence (whole entry): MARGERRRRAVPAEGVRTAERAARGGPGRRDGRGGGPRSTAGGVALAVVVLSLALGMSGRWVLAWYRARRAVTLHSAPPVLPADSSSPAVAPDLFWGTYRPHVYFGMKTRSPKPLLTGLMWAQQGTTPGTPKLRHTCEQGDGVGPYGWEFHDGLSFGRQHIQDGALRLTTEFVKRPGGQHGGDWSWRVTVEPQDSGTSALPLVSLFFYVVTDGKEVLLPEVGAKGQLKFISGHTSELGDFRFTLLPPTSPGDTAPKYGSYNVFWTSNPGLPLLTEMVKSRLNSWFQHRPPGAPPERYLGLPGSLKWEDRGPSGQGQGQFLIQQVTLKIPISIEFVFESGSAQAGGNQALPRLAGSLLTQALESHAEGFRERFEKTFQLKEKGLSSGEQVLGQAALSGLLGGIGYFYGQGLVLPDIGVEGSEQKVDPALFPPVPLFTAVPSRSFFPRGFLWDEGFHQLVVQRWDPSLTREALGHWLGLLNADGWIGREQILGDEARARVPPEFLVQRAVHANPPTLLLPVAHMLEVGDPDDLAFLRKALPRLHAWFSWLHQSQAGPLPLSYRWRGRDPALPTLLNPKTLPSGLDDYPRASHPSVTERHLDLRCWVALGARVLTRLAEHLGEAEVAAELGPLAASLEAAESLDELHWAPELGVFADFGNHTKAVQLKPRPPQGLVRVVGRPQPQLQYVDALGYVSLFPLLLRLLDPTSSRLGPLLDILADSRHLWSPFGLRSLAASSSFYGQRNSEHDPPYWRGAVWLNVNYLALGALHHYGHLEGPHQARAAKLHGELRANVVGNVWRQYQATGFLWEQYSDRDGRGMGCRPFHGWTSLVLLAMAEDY

[4] = molecular target: T4, Cytosolic beta-glucosidase (Homo sapiens) (UniProt Q9H227); experiment: Inhibition of beta-Glucosidase at 1 umol/mL
T4 sequence (whole entry): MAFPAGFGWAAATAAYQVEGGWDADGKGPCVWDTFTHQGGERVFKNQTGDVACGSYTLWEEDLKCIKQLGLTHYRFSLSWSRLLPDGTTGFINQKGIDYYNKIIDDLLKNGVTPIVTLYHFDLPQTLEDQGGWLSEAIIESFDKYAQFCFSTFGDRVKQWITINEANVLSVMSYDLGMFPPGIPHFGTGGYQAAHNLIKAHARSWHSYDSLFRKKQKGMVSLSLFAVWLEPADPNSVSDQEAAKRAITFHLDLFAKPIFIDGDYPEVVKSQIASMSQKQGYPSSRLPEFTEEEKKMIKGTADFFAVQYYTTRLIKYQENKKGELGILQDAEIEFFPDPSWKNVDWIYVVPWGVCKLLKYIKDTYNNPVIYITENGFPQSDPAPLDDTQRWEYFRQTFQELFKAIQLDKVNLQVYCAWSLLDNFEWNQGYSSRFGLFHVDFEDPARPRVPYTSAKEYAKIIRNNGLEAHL

[5] = Competitive Inhibition constant for Bacillus stearothermophilus glucosidase; set-up: species or system Geobacillus stearothermophilus
[6] = Inhibitory concentration of Bacillus stearothermophilus glucosidase (of family 13 alpha-glucosidase) at 1 umol/mL; set-up: species or system Geobacillus stearothermophilus

O=C(CCO)NCC1OC(CO)C(O)C(O)C1O (stereo not drawn)
inhibition (Homo sapiens): < 1%

O=C(CO)NCC1OC(CO)C(O)C(O)C1O (stereo not drawn)
IC50 (Alpha-glucosidase): 851 µM

O=C(NCC1OC(CO)C(O)C(O)C1O)c1ccccc1 (stereo not drawn)
inhibition [1]: 12.3% | inhibition [2]: < 1% | inhibition [3]: 18.2% | inhibition [4]: < 1%

O=C(CCCCO)NCC1OC(CO)C(O)C(O)C1O (stereo not drawn)
Ki [5]: 580 µM | IC50 [6]: 415 µM
